The values that follow come from publication PMC7764916, “The Cholinesterase Inhibitory Properties of Stephaniae Tetrandrae Radix” (Molecules, 2020).

Broadly, the IC50 is the concentration that gives 50% inhibition. Usually Ki stands for the equilibrium dissociation constant of an inhibitor or competing ligand from its target.

Like-named read-outs stand apart in the source and are kept apart here.

One assay addresses T1, BChE (Mus musculus, UniProt Q03311).
T1 construct: the brain lysate and iso-OMPA were replaced with diluted serum solution and 0.1 μM BW284c51; from tissue; host or cells: mouse serum (diluted 1:50)
Kind of assay: BChE activity assay (Ellman method), mouse serum. The following applies: for IC50: alkaloids, Figure 3B; for BChE inhibitory activity (in words): Figure 3. The assay is classed as biochemical. Here is the method:
Mouse serum (1: 50 v/v, diluted with precooled low-salt lysis buffer) was prepared for the BChE activity assay. The BChE assay medium consisted of the same composition as the AChE assay medium, except that the brain lysate and iso-OMPA were replaced with diluted serum solution and 0.1 μM BW284c51. The mixture of diluted serum, Na2HPO4 buffer, and BW284c51 solution was incubated at 37 °C for 10 min, and then the solutions of DNTB and ATCh were added. […] The concentration of DMSO in the reaction system of AChE/BChE assay was controlled at 0.5%. […] The AChE/BChE inhibitory activity of drugs was calculated as a percentage of the control absorbance value, AChE/BChE inhibition (%) = (1 − absorbance with inhibitor/absorbance without inhibitor) × 100%. […] The protein concentrations were measured using the Bio-Rad Protein Assay kit (Hercules, CA, USA).
Background: Ellman's reagent forms a yellow product with free thiols.

Assay [1] concerns the target T2, AChE (Mus musculus, UniProt P21836).
T2 construct: The AChE assay medium consisted of brain lysate (5 mg/mL) with testing drugs; from tissue; host or cells: mouse brain (Triton X-100 low-salt lysate)
T2 sequence (P21836 32-614): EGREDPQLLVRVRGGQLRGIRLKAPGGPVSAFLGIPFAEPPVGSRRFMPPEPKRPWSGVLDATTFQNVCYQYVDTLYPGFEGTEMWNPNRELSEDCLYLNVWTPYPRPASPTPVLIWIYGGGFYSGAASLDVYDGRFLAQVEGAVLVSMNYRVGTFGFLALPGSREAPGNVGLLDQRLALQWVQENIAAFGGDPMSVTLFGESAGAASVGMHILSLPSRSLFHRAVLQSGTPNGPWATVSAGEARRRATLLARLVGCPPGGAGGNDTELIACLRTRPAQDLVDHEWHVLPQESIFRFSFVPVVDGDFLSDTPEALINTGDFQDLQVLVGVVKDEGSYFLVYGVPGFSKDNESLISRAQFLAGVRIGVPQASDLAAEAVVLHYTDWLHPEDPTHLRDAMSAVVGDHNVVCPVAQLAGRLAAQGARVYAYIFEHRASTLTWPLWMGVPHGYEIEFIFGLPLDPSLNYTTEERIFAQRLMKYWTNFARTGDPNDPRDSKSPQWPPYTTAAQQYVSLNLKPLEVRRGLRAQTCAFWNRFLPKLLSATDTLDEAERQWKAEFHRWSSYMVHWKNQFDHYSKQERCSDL
Put plainly: biochemical. Here is the method:
The extracts and alkaloids of STR were tested for cholinesterase activity using a 96-well microtiter plate (Corning, NY, USA) with a final volume of 200 μL, according to the Ellman method. […] The mixture of brain lysate, Na2HPO4 buffer, and iso-OMPA solution was incubated at 37 °C for 10 min, and then the solutions of DNTB and ATCh were added.
Mouse serum (1: 50 v/v, diluted with precooled low-salt lysis buffer) was prepared for the BChE activity assay. The BChE assay medium consisted of the same composition as the AChE assay medium, except that the brain lysate and iso-OMPA were replaced with diluted serum solution and 0.1 μM BW284c51. The mixture of diluted serum, Na2HPO4 buffer, and BW284c51 solution was incubated at 37 °C for 10 min, and then the solutions of DNTB and ATCh were added. […] The concentration of DMSO in the reaction system of AChE/BChE assay was controlled at 0.5%. […] The protein concentrations were measured using the Bio-Rad Protein Assay kit (Hercules, CA, USA).

For assay [2], the target named is T2, AChE. Put plainly: Enzyme kinetic analysis of AChE inhibition (Lineweaver–Burk plots). The assay is classed as biochemical. The conditions noted are these: for type of AChE inhibition: Lineweaver–Burk plots; for Ki: estimated from Lineweaver–Burk plots, ATCh 0.040–0.625 mM. Here is the method: Figure 4 The enzyme kinetic analysis of AChE inhibition by fangchinoline and cyclanoline. Different doses of fangchinoline (0.5–5 μM) and cyclanoline (30–120 μM) were added to the AChE reaction system and preincubated at 37 °C with the brain lysate, followed by the addition of a range of doses of ATCh (0.040–0.625 mM). The inhibition constants Ki were estimated from the plots of the slope versus the concentration of tested drugs. Donepezil (25 nM) served as a positive control. The data are expressed as the mean ± SEM (standard error of mean) of three […] assays, each with triplicate samples.
The Michaelis constant (Km), maximum velocity (Vmax), and inhibitory constant (Ki) were used to evaluate the kinetics of fangchinoline and cyclanoline. Lineweaver–Burk plots were then plotted using initial velocities, from which the Km and Vmax values were calculated (the absolute values of horizontal and vertical intercepts were 1/Km and 1/Vmax, respectively). The slopes of reciprocal plots were then plotted against the doses of fangchinoline and cyclanoline, and Ki values were determined as the absolute value of the x-axis intercept. Donepezil was used as a positive control. All experiments were performed in triplicate.

The mark [3] stands for this setting: alkaloids, Figure 3B, read-out: AChE IC50.

T1 sequence (Q03311 30-603): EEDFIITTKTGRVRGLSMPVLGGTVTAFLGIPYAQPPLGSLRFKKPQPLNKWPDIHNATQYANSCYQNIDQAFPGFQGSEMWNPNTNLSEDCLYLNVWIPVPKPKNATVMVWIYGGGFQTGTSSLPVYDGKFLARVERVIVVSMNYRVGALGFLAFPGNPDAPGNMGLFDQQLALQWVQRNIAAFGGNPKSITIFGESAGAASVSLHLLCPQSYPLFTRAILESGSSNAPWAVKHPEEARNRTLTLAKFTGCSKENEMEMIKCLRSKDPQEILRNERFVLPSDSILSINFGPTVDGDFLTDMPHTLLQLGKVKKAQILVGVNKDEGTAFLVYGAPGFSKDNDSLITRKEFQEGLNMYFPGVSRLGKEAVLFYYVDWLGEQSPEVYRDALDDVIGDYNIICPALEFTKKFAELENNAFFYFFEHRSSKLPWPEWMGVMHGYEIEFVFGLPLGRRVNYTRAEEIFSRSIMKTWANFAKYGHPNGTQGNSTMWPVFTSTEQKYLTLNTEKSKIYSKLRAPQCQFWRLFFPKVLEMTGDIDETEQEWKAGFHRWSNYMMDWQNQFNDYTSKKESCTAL

Regarding `COc1ccc2c3c1O[C@H]1C[C@@H](O)C=C[C@@]31CCN(C)C2` [Galanthamine, galanthamine, reference compound], at BChE, the IC50 is 49.8 ± 2.5 µM.
`COc1cc2c(cc1O)[C@@H]1Cc3ccc(OC)c(O)c3C[N@+]1(C)CC2` [cyclanoline]: the IC50 amounted to 106 ± 2.29 µM on AChE [1] (setting [3]) and 247 ± 5.46 µM at BChE. Also, the “type of AChE inhibition” value on AChE [2] was “noncompetitive”. In addition, the Ki on AChE [2] is 72.3 µM.
In the case of `COc1ccc2cc1Oc1ccc(cc1)C[C@H]1c3cc(c(OC)cc3CCN1C)Oc1c(O)c(OC)cc3c1[C@H](C2)N(C)CC3` [fangchinoline], the IC50 at AChE [1] (Figure 5A, ATCh 0.625 mM, read-out: AChE IC50 (single drug, synergy experiment)) is 2.12 ± 0.16 µM; on AChE [1] (setting [3]), 2.58 ± 0.28 µM. The “BChE inhibitory activity (in words)” value on BChE was “no inhibitory activity on BChE”. On AChE [2], the “type of AChE inhibition” value is given as “noncompetitive”. The inhibition constant (Ki) at AChE [2] was 1.79 µM.
Regarding `COc1ccc2cc1Oc1ccc(cc1)C[C@H]1c3cc(c(OC)cc3CCN1C)Oc1c(OC)c(OC)cc3c1[C@H](C2)N(C)CC3` [tetrandrine], the “AChE inhibitory activity (in words)” value at AChE [1] (Figure 3) is “no inhibitory activity on AChE at the maximal dissolvable concentration”. In addition, the “BChE inhibitory activity (in words)” value on BChE was “no or little inhibitory activity on BChE”.
